Reference: DBAASP
≈ marks a conversion by molar mass, not a printed value.

Tests used:
Assay in all cases: ≥ marks a high value that may be exact or a test limit, other limits are often not marked, values filed in µg/mL are converted to µM
Vibrio scophthalmi ZS1 = system: Vibrio scophthalmi ZS1
[1] = system: Vibrio vulnificus 1H00066
[2] = system: Vibrio ichthyoenteri 1A00057
[3] = system: Staphylococcus aureus 1D00101
Vibrio litoralis H1 = system: Vibrio litoralis H1
[4] = system: Micrococcus luteus 1D00051
Candida glabrata = system: Candida glabrata
Candida tropicalis = system: Candida tropicalis
[5] = system: Pseudomonas aeruginosa ATCC 10662
Candida albicans = system: Candida albicans
Acinetobacter baumannii = system: Acinetobacter baumannii
Staphylococcus aureus = system: Staphylococcus aureus
[6] = system: Staphylococcus aureus ATCC 25923
[7] = system: Enterococcus faecium ATCC 51559
[8] = system: Klebsiella pneumoniae ATCC 13883
[9] = system: Acinetobacter baumannii B2367-12
[10] = system: Staphylococcus aureus USA 300
[11] = system: Enterobacter cloacae B2366-12
[12] = system: Pseudomonas aeruginosa PAO1
Xanthomonas citri = system: Xanthomonas citri
[13] = system: Sinorhizobium meliloti USDA 1002
[14] = system: Agrobacterium tumefaciens GV3101
Methylobacterium sp. = system: Methylobacterium sp.
[15] = system: Staphylococcus aureus ATCC 29213
Escherichia coli ML-35p = system: Escherichia coli ML-35p
[16] = system: Micrococcus luteus VKM B-1314
Escherichia coli C600 = system: Escherichia coli C600
[17] = system: Escherichia coli BL21(DE3)
[18] = system: Bacillus megaterium VKM41
[19] = system: Staphylococcus aureus 209P
[20] = system: Bacillus subtilis VKM B-886
[21] = system: Staphylococcus aureus ATCC 43300
[22] = system: Klebsiella pneumoniae ATCC 700603
[23] = system: Acinetobacter baumannii ATCC 19606
[24] = system: Pseudomonas aeruginosa ATCC 27853
Pseudomonas aeruginosa = system: Pseudomonas aeruginosa
[25] = system: Escherichia coli ATCC 25922
[26] = system: Klebsiella pneumoniae ATCC BAA-2146
[27] = system: Candida albicans ATCC 90028
[28] = system: Bacillus subtilis ATCC 6051
[29] = system: Cryptococcus neoformans ATCC 208821
Klebsiella pneumoniae = system: Klebsiella pneumoniae

## CSCC[C@H](NC(=O)[C@H](CCCN=C(N)N)NC(=O)[C@H](Cc1cnc[nH]1)NC(=O)CNC(=O)[C@H](CCCCN)NC(=O)CNC(=O)[C@H](CCC(N)=O)NC(=O)[C@H](CCCN=C(N)N)NC(=O)[C@H](CCCCN)NC(=O)[C@H](Cc1ccc(O)cc1)NC(=O)[C@H](CCCCN)NC(=O)[C@H](CCCCN)NC(=O)CNC(=O)CNC(=O)[C@H](CCCCN)NC(=O)[C@@H](NC(=O)[C@@H](N)CS)C(C)C)C(=O)N[C@@H](CCCN=C(N)N)C(=O)N[C@@H](CCCN=C(N)N)C(=O)N[C@@H](Cc1ccc(O)cc1)C(=O)N[C@@H](CCCN=C(N)N)C(=O)N[C@@H](CC(N)=O)C(=O)N[C@@H](CC(N)=O)C(=O)N[C@@H](Cc1cnc[nH]1)C(=O)O [CVKGGKKYKRQGKGHRMRRYRNNH]
Vibrio scophthalmi ZS1
  MIC: ≥ 340 µM
[1]
  MIC: ≥ 170 µM
[2]
  MIC: ≥ 85 µM
[3]
  MIC: 6 µM (≈ 17.8 µg/mL)
Vibrio litoralis H1
  MIC: 11 µM (≈ 32.5 µg/mL)
[4]
  MIC: 3 µM (≈ 8.88 µg/mL)

## CC[C@H](C)[C@H](NC(=O)[C@H](C)NC(=O)[C@H](CCCCN)NC(=O)[C@H](C)NC(=O)CNC(=O)[C@H](CCCN=C(N)N)NC(=O)[C@H](CC(C)C)NC(=O)[C@H](CC(C)C)NC(=O)[C@H](CO)NC(=O)[C@H](CCCN=C(N)N)NC(=O)[C@H](CC(C)C)NC(=O)[C@@H](N)Cc1ccccc1)C(=O)N[C@@H](Cc1ccc(O)cc1)C(=O)N[C@@H](CCCN=C(N)N)C(=O)NCC(=O)N[C@@H](C)C(=O)N[C@@H](CCCN=C(N)N)C(=O)N[C@@H](C)C(=O)NCC(=O)N[C@@H](Cc1c[nH]c2ccccc12)C(=O)N[C@@H](CCCN=C(N)N)C(=O)NCC(N)=O [FLRSLLRGAKAIYRGARAGWRG]
Candida glabrata
  MIC: ≥ 60.6 µM
Candida tropicalis
  MIC: 2.67 µM (≈ 6.62 µg/mL)
[5]
  MIC: 15.1 µM (≈ 37.5 µg/mL)
Candida albicans
  MIC: 2.67 µM (≈ 6.62 µg/mL)
Acinetobacter baumannii
  MIC: 7.27 µM (≈ 18 µg/mL)
Staphylococcus aureus
  MIC: 1.89 µM (≈ 4.68 µg/mL)
[6]
  MIC: 1.89 µM (≈ 4.68 µg/mL)

## CC(C)C[C@H](NC(=O)[C@H](CC(N)=O)NC(=O)[C@H](CCCN=C(N)N)NC(=O)[C@@H](CC(C)C)NC(=O)[C@H](Cc1ccccc1)NC(=O)[C@H](CC(=O)O)NC(=O)[C@H](CCCCN)NC(=O)[C@@H](CC(C)C)NC(=O)[C@H](CCCN=C(N)N)NC(=O)[C@H](CCC(N)=O)NC(=O)[C@@H](NC(=O)[C@@H](CC(C)C)NC(=O)[C@H](CCCN=C(N)N)NC(=O)[C@H](CCCCN)NC(=O)[C@H](Cc1ccccc1)NC(=O)CN)C(C)C)C(=O)N[C@H](C(N)=O)C(C)C [GFKRLVQRLKDFLRNLV]
[7]
  MIC: ≥ 100 µM
[8]
  MIC: ≥ 100 µM
[9]
  MIC: 8.8 µM (≈ 18.5 µg/mL)
[10]
  MIC: ≥ 100 µM
[11]
  MIC: 25 µM (≈ 52.5 µg/mL)
[12]
  MIC: 100 µM (≈ 210 µg/mL)

## CC[C@H](C)[C@H](N)C(=O)N[C@@H](CCC(=O)O)C(=O)N[C@H](C(=O)N[C@@H](Cc1ccccc1)C(=O)N[C@@H](CC(C)C)C(=O)N[C@@H](CCCCN)C(=O)N[C@@H](CCC(N)=O)C(=O)N[C@@H](CC(C)C)C(=O)N[C@@H](CCCN=C(N)N)C(=O)N[C@@H](CO)C(=O)N[C@@H](C)C(=O)N[C@@H](C)C(=O)N[C@@H](CC(N)=O)C(=O)N[C@@H](CCCCN)C(=O)N[C@H](C(=O)N[C@H](C(=O)NCC(=O)N[C@@H](CC(C)C)C(=O)O)C(C)C)[C@@H](C)CC)[C@@H](C)O [IETFLKQLRSAANKIVGL]
Xanthomonas citri
  MIC: ≥ 32 µM
[13]
  MIC: ≥ 64 µM
[14]
  MIC: ≥ 64 µM
Methylobacterium sp.
  MIC: ≥ 64 µM

## CC[C@H](C)[C@H](N)C(=O)N[C@@H](CCCCN)C(=O)N[C@@H](CC(N)=O)C(=O)N[C@@H](C)C(=O)N[C@@H](CCCCN)C(=O)N[C@H](C(=O)N[C@H]1CSSC[C@@H](C(=O)N[C@H](C(=O)N[C@@H](CO)C(=O)N[C@@H](Cc2cnc[nH]2)C(=O)N[C@@H](CCCCN)C(=O)O)C(C)C)NC(=O)[C@H](C(C)C)NC(=O)[C@H](C)NC(=O)[C@H](Cc2ccc(O)cc2)NC(=O)[C@H](C(C)C)NC1=O)C(C)C [IKNAKVCVYAVCVSHK]
[15]
  MIC: > 128 µM
Escherichia coli ML-35p
  MIC: ≥ 64 µM
[16]
  MIC: 16 µM (≈ 28.2 µg/mL)
Acinetobacter baumannii
  MIC: ≥ 64 µM
Escherichia coli C600
  MIC: ≥ 64 µM
[17]
  MIC: ≥ 64 µM
[18]
  MIC: 16 µM (≈ 28.2 µg/mL)
[19]
  MIC: 16 µM (≈ 28.2 µg/mL)
[20]
  MIC: 16 µM (≈ 28.2 µg/mL)
[12]
  MIC: > 128 µM

## CC[C@H](C)[C@@H]1NC(=O)CNC(=O)[C@H](CCCN=C(N)N)NC(=O)[C@H](Cc2ccc(O)cc2)NC(=O)[C@@H](NC(=O)[C@@H](NC(=O)[C@H](CCCN=C(N)N)NC(=O)[C@H](Cc2ccccc2)NC(=O)[C@H](CO)NC(=O)[C@H](Cc2c[nH]c3ccccc23)NC(=O)[C@@H](N)CCCCN)C(C)C)CSSC[C@@H](C(=O)N[C@@H](Cc2ccc(O)cc2)C(=O)N[C@@H](CCCN=C(N)N)C(=O)N[C@@H](CCCN=C(N)N)C(=O)N[C@@H](C)C(=O)N[C@@H](CCCN=C(N)N)C(=O)O)NC1=O [KWSFRVCYRGICYRRAR]
[21]
  MIC: 1.8 µM (≈ 4 µg/mL)
[22]
  MIC: 0.901 µM (≈ 2 µg/mL)
[23]
  MIC: 0.113 µM (≈ 0.25 µg/mL)
[8]
  MIC: 0.45 µM (≈ 0.999 µg/mL)
Acinetobacter baumannii
  MIC: 0.113 µM (≈ 0.25 µg/mL)
[24]
  MIC: 0.45 µM (≈ 0.999 µg/mL)
Pseudomonas aeruginosa
  MIC: 1.8 µM (≈ 4 µg/mL)
[25]
  MIC: 0.113 µM (≈ 0.25 µg/mL)
[26]
  MIC: 0.45 µM (≈ 0.999 µg/mL)
[27]
  MIC: 1.8 µM (≈ 4 µg/mL)
[28]
  MIC: 0.0563 µM (≈ 0.125 µg/mL)
[29]
  MIC: 0.113 µM (≈ 0.25 µg/mL)
Klebsiella pneumoniae
  MIC: 7.21 µM (≈ 16 µg/mL)
